Columns and labels:
Experiment in all cases: relative viability (nuclei count vs DMSO), 5 days (fraction); higher = more cells survive
[1] = compound: CC1=C(N=C(N=C1N)[C@H](CC(=O)N)NC[C@@H](C(=O)N)N)C(=O)N[C@@H]([C@H](C2=CN=CN2)OC3C(C(C(C(O3)CO)O)O)OC4C(C(C(C(O4)CO)O)OC(=O)N)O)C(=O)N[C@H](C)[C@H]([C@H](C)C(=O)N[C@@H]([C@@H](C)O)C(=O)NCCC5=NC(=CS5)C6=NC(=CS6)C(=O)NCCC[S+](C)C)O [Bleomycin] + CS(=O)(=O)CCNCc1ccc(-c2ccc3ncnc(Nc4ccc(OCc5cccc(F)c5)c(Cl)c4)c3c2)o1 [Lapatinib] (partner 2 µM); conditions: main component drawn
In short: (§1)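 A single step with final 0.05% Triton X-100, 1% formaldehyde and 1 ug/ml Hoechst fixed the cells and stained nuclei 5 days after treatment. Lung cancer cell lines in 1536-well plates had been treated by pin tool the day after seeding with one drug alone or a fixed anchor-drug dose plus five library-drug doses (not always all listed) in √10 steps, and nuclei were counted on 4× images. Relative viability is the ratio of nuclei in treated wells to nuclei in vehicle wells, taken as the median of duplicate plates.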

[2] = compound: CC1=C(N=C(N=C1N)[C@H](CC(=O)N)NC[C@@H](C(=O)N)N)C(=O)N[C@@H]([C@H](C2=CN=CN2)OC3C(C(C(C(O3)CO)O)O)OC4C(C(C(C(O4)CO)O)OC(=O)N)O)C(=O)N[C@H](C)[C@H]([C@H](C)C(=O)N[C@@H]([C@@H](C)O)C(=O)NCCC5=NC(=CS5)C6=NC(=CS6)C(=O)NCCC[S+](C)C)O [Bleomycin] + CC1(C)CCC(c2ccc(Cl)cc2)=C(CN2CCN(c3ccc(C(=O)NS(=O)(=O)c4ccc(N[C@H](CCN5CCOCC5)CSc5ccccc5)c(S(=O)(=O)C(F)(F)F)c4)cc3)CC2)C1 [Navitoclax] (partner 0.5 µM); conditions: main component drawn
In short: as §1

[3] = compound: COc1cc([C@@H]2c3cc4c(cc3[C@@H](O[C@@H]3O[C@@H]5CO[C@@H](C)O[C@H]5[C@H](O)[C@H]3O)[C@H]3COC(=O)[C@H]23)OCO4)cc(OC)c1O [Etoposide] + Cc1nc(Nc2ncc(C(=O)Nc3c(C)cccc3Cl)s2)cc(N2CCN(CCO)CC2)n1 [Dasatinib] (partner 0.075 µM)
In short: as §1

[4] = compound: COc1cc([C@@H]2c3cc4c(cc3[C@@H](O[C@@H]3O[C@@H]5CO[C@@H](C)O[C@H]5[C@H](O)[C@H]3O)[C@H]3COC(=O)[C@H]23)OCO4)cc(OC)c1O [Etoposide] + CCNC(=O)c1noc(-c2cc(C(C)C)c(O)cc2O)c1-c1ccc(CN2CCOCC2)cc1 [Luminespib] (partner 0.01 µM)
In short: as §1

Cell Line	relative viability ([1]; first compound 0.01 µM)	relative viability ([1]; first compound 0.03162 µM)	relative viability ([1]; first compound 0.1 µM)	relative viability ([1]; first compound 0.3162 µM)	relative viability ([1]; first compound 1 µM)	relative viability ([2]; first compound 0.01 µM)	relative viability ([2]; first compound 0.03162 µM)	relative viability ([2]; first compound 0.1 µM)	relative viability ([2]; first compound 0.3162 µM)	relative viability ([2]; first compound 1 µM)	relative viability ([3]; first compound 0.01 µM)	relative viability ([3]; first compound 0.03162 µM)	relative viability ([3]; first compound 0.1 µM)	relative viability ([3]; first compound 0.3162 µM)	relative viability ([3]; first compound 1 µM)	relative viability ([4]; first compound 0.01 µM)	relative viability ([4]; first compound 0.03162 µM)	relative viability ([4]; first compound 0.1 µM)	relative viability ([4]; first compound 0.3162 µM)	relative viability ([4]; first compound 1 µM)
EMC-BAC-2	0.817	0.754	0.719	0.399	0.305	1.04	1.18	0.979	0.661	0.399	0.319	0.333	0.193	0.16	0.112	0.895	0.932	0.651	0.297	0.248
NCI-H1993	0.732	0.736	0.754	0.656	0.609	0.887	0.765	0.863	0.663	0.584	0.619	0.712	0.478	0.546	0.376	0.827	0.726	0.757	0.73	0.48
NCI-H596	0.852	0.742	0.547	0.416	0.452	0.648	0.534	0.312	0.276	0.305	0.608	0.657	0.543	0.647	0.507	1.01	0.883	0.986	0.771	0.681
NCI-H1792	0.848	0.798	0.841	0.326	0.139	0.541	0.665	0.492	0.302	0.109	0.699	0.695	0.658	0.72	0.549	0.317	0.472	0.205	0.215	0.248
SW 1573	1.05	0.871	0.84	0.446	0.4	0.652	0.571	0.515	0.201	0.104	0.43	0.525	0.212	0.155	0.0993	0.131	0.164	0.355	0.152	0.0996
NCI-H1650	0.535	0.321	0.235	0.147	0.16	0.394	0.429	0.212	0.148	0.211	0.302	0.381	0.315	0.211	0.127	0.204	0.175	0.202	0.209	0.211
NCI-H2009	0.808	0.892	0.92	0.379	0.365	1.16	1.18	1.09	0.858	0.532	0.288	0.313	0.218	0.282	0.207	1.03	0.961	1	0.644	0.476
